{"source": "patent US5047533A", "about": "“Acyclic purine phosphonate nucleotide analogs” (SRI International, priority 1990, dated 1991)", "key": {"[1]": {"test_system": "human cytomegalovirus (strain AD169)", "assay": "Plaque reduction, human cytomegalovirus", "assay_type": "cell-based", "description": "One herpes virus strain employed was Strain McCrae of type 1 herpes (thymidine kinase positive virus) (HSV-1TK^+). This strain was prepared and titered in MA-104 cells and frozen at -90° C. until use. Also used were strain HF (HSV-1TK^-). Strain E194 (HSV-2), NJB strain (MCMV), strain AD169 (HCMV).\n^a 50% effective dose, determined from plot of data.\n(§1) The data on acyclovir were gathered from tests run in MRC-5 cells grown under agarose overlay, with plaques read 7 days after virus exposure."}, "[2]": {"assay": "Cytotoxicity (maximum tolerated dose), control tests in 96-well microplates", "assay_type": "cell-based", "conditions": "Table 5; microscopic examination, separately run control tests; read-out: Approx. MTD (dose causing approximately 50% cytotoxic effects in cells)", "from_the_text": "(§2) ^b Maximum tolerated dose: That dose causing approximately 50%\n(§3) cytotoxic effects in cells, determined by the microscopic examination of\n(§4) cells for sloughing, shape alteration, and granularity in separately run\n(§5) control tests in 96well microplates.\nas §1"}, "[3]": {"test_system": "cells", "assay": "Cytotoxicity (maximum tolerated dose), control tests in 96-well microplates", "assay_type": "cell-based", "conditions": "overall, Table 5", "from_the_text": "as §2, §3, §4, §5, §1"}, "[4]": {"test_system": "HIV", "assay": "Antiviral activity versus HIV in lymphoblastoid cells", "assay_type": "cell-based", "conditions": "Human immunodeficiency virus 1, Lymphoblastoid cell, read-out: ED50 against HIV", "description": "The compounds of the invention were evaluated in vitro as antiviral agents against herpes virus and against RNA retrovirus. Various herpes strains were used. An infected B lymphoblastoid cell line was used as HIV substrate to test antiviral activity with respect to RNA retrovirus.\nTo test antiviral activity versus HIV, the following procedure was used: Infectious HIV was assayed in cell culture as described originally by Barre-Sinoussi et al for isolation of LAV, except that persistently infected lymphoblastoid cells were used instead of mononuclear cells from anti-LAV negative donors. HIV obtained from cell culture was stored in liquid nitrogen in aliquots of RPMI 1640 culture medium with 20% of total calf serum and 20% glycerol and containing 1,000 TCID-50 HIV. The lymphoblastoid cells (10^6) were incubated with 1,000 TCID-50 of HIV obtained from cell cultures, and cells were then cultured in RPMI-1640 medium. Culture medium was changed every 3 days for 3 weeks and the medium for each 3-day period from Day 6 through Day 21 was assayed for viral reverse transcriptase activity by concentrating (pelleting) virus by ultracentrifugation in the 100 place Spinco 25 rotor and assaying pellets for reverse transcriptase (RT) using a ^32 P-dTTP in the presence of dimer-template poly rA-oligo dT. […]"}, "[5]": {"test_system": "reverse transcriptase (RT) from Moloney murine leukemia virus (MMLV) or avian myeloblastosis virus (AMV)", "assay": "Reverse transcriptase assay", "assay_type": "biochemical", "conditions": "1 mM", "description": "For the reverse transcriptase assay, cloned reverse transcriptase (RT) (Bethesda Research Laboratories) from Moloney murine leukemia virus (MMLV) or avian myeloblastosis virus (AMV) (Seikagaku or Boehringer Mannheim) was used to direct DNA synthesis from a polyribonucleotide template and a oligodeoxynucleotide primer under reaction conditions (Houts, G. E., et al, J Virol (1979) 29:517.)\nReaction mixtures (100 μl) for the assay of MMLV RT consisted of 50 mM Tris-hydrochloride, pH 8.0, 6 mM MgCl2, 40 mM KCl, 100 μg bovine serum albumin per ml, 1 mM dithiothreitol, 0.1 mM polyadenylic acid (Pharmacia, Inc.), 0.1 mM oligo(dT)12-18 (Pharmacia, Inc.), 0.4 mM deoxythymidine triphosphate (dTTP), and 0.1 mM tritiated (93.5 Cl/mmol) dTTP (New England Nuclear). The compounds assayed were added in various concentrations and dilutions at a volume of 10 μl. Results were confirmed by duplicate assays. Dilutions were made using 10% aqueous DMSO. The total activity was measured by spotting on dry Whatman 3 mm filter disks and radioactivity was determined by liquid scintillation techniques. The assay time course was begun by adding 10 units of RT from MMLV or AMV and incubating the reaction at 37° C. […] Disks were dried under a heat lamp and the acid-insoluble product radioactivity was determined by liquid scintillation counting. […]"}, "[6]": {"test_system": "HSV-1TK+", "assay": "In vivo guinea pig HSV-1TK+ lesion test, topical solution", "conditions": "guinea pigs; for TK+ (average number of lesions): five days after treatment", "description": "Compound 2 also was tested in vivo in guinea pigs as an agent against HSV-1TK^+. The animals were inoculated with the virus; 18 hours later Compound 2 at two concentrations (0.4% and 1-2% (saturated) solution in water) was administered, and five days later blister diameters at the point of inoculation were measured. A 5% solution of acyclovir or a 1.4% solution of poly(vinylalcohol) was used as control. Satellite lesions were measured, as well."}, "[7]": {"conditions": "1-2% (saturated) solution in water"}}, "note": "Like-named read-outs stand apart in the source and are kept apart here.", "data": [{"smiles": "CCOP(=O)(O)CCCOCn1cnc2c(=O)[nH]c(N)nc21", "note": "[Compound 2, 9(3'-ethylphosphono-1'-propyloxymethyl)guanine]", "values": [{"measurement": "No. Plaques", "setting": "[1]; Experiment No. 1, 32 μg/ml", "value": 5}, {"measurement": "No. Plaques", "setting": "[1]; Experiment No. 1, 100 μg/ml", "value": 0}, {"measurement": "No. Plaques", "setting": "[1]; Experiment No. 2, 10 μg/ml", "value": 17}, {"measurement": "No. Plaques", "setting": "[1]; Experiment No. 2, 32 μg/ml", "value": 6}, {"measurement": "No. Plaques", "setting": "[1]; Experiment No. 2, 100 μg/ml", "value": 1}, {"measurement": "inhibition at 32 µg/mL", "setting": "[1]; Human betaherpesvirus 5, AD169, read-out: % Reduct., Experiment No. 1, 32 μg/ml", "value": 71, "unit": "%"}, {"measurement": "inhibition at 100 µg/mL", "setting": "[1]; Human betaherpesvirus 5, AD169, read-out: % Reduct., Experiment No. 1, 100 μg/ml", "value": 100, "unit": "%"}, {"measurement": "inhibition at 10 µg/mL", "setting": "[1]; Human betaherpesvirus 5, AD169, read-out: % Reduct., Experiment No. 2, 10 μg/ml", "value": 23, "unit": "%"}, {"measurement": "inhibition at 32 µg/mL", "setting": "[1]; Human betaherpesvirus 5, AD169, read-out: % Reduct., Experiment No. 2, 32 μg/ml", "value": 73, "unit": "%"}, {"measurement": "inhibition at 100 µg/mL", "setting": "[1]; Human betaherpesvirus 5, AD169, read-out: % Reduct., Experiment No. 2, 100 μg/ml", "value": 96, "unit": "%"}, {"measurement": "EC50", "setting": "[1]; Human betaherpesvirus 5, AD169, read-out: Approx. ED50, Experiment No. 2, determined from plot of data", "value": "10 to 32", "unit": "µg/mL"}, {"measurement": "EC50", "setting": "[1]; Human betaherpesvirus 5, AD169, read-out: ED50, human CMV", "value": 10, "unit": "µg/mL"}, {"measurement": "human CMV-inhibitory effect relative to acyclovir", "setting": "[1]; overall, Table 5", "value": "approximately the same"}, {"measurement": "CC50", "setting": "[2]", "value": "~1000", "unit": "µg/mL"}, {"measurement": "cytotoxicity relative to acyclovir", "setting": "[3]", "value": "approximately the same"}, {"measurement": "EC50", "setting": "[4]", "value": 30, "unit": "µg/mL"}, {"measurement": "inhibition of reverse transcriptase", "setting": "[5]", "value": 100, "unit": "%"}, {"measurement": "Satellite lesions", "setting": "[6]; 0.4% solution in water", "value": 11}, {"measurement": "TK+ (average number of lesions)", "setting": "[6]; 0.4% solution in water", "value": 2.1}, {"measurement": "Satellite lesions", "setting": "[6]; [7]", "value": 6}, {"measurement": "TK+ (average number of lesions)", "setting": "[6]; [7]", "value": 0.9}, {"measurement": "activity against HSV TK+ virus in vivo", "setting": "[6]; at least in saturated solution", "value": "has activity"}]}]}
